# Measured values taken from patent US9108972B2, “Salts of DPP-IV inhibitor” (Cadila Healthcare Limited, priority 2011, dated 2015).
# How the values were obtained:
# [1] = tested on: male C57BLKS/J mice; assay: Oral glucose tolerance test (OGTT) in male C57 mice; assay type: in vivo; settings: for efficacy compared with crystalline monohydrate phosphate salt (SP): acute oral glucose tolerance test in C57 mice, 10 mg/kg PO; for % change in AUC glucose: single dose 10 mg/kg PO with glucose load 3 g/kg, male C57 mice fasted 18 h, AUC for 120 min, vs vehicle control
# Protocol: Eight to ten weeks old male C57BLKS/J mice obtained from Animal Research Facility of Zydus Research Centre were used. The mice were allowed ad libitum access to chow and water. Animals were on a 12-hour light, 12-hour dark cycle. Protocol for use of animals for conducting this study has been reviewed and approved by Institutional Animal Ethics Committee (IAEC).
# Oral glucose tolerance test (OGTT) was performed on these animals. The mice were deprived of food for 18 h and then drug or vehicles were administered with a glucose load (3 g/kg) by oral route. Blood (200 μL) samples were collected at 0, 30, 60, 120 and 240 min. Serum glucose concentrations were determined using commercially available kits purchased from RFCL (New Delhi, India) using spectrophotometric assay. […] The area under the curve for 120 min was calculated, based on which the percentage inhibition was obtained for each treatment.
# [2] = Stability study on storage (25° C. ± 2° C./60% ± 5% RH) for 3 months
# Protocol: The complete x-ray powder spectrum, which was recorded with a Rigaku multifelx 2.0 Kilowatt X-ray powder diffractometer model using copper radiation. The X-ray diffraction pattern was recorded by keeping the instrument parameters listed below:
# i) X-ray: Cu/40 kv/30 mA, Diverging slit: 1°, Scattering slit: 1°, Receiving slit: 0.15 mm, Monochromator RS: 0.8 mm, Counter: Scintillation counters;
# Scan mode: Continuous, Scan speed: 4.000 deg./min., Sampling width: 0.010°,
# Scan axes: 2 theta vs CPS, Scan range: 4° to 40.0°, Theta offset: 0.000.
# iv) (2R)-4-oxo-4-[3-(trifluoromethyl)-5,6-dihydro[1,2,4]-triazolo[4,3-a]pyrazin-7(8H)-yl]-1-(2,4,5-trifluorophenyl)butan-2-amine and its salts were analyzed for purity by analytical HPLC at λmax 210 nm using column YMC-C8, 250 mm×4.6 mm×4 mm or its equivalent on AGILENT 1100 series under the following conditions, Detector: UV absorption photometer Wave length: 210 nm Column temp.: 25° C. Flow rate: 1.0 mL/min. Injection Vol.: 10 μL Mobile Phase: 10 mM KH2PO4 (pH-6.8): Acetonitrile (55:45) (2R)-4-oxo-4-[3-(trifluoromethyl)-5,6-dihydro[1,2,4]-triazolo[4,3-a]pyrazin-7(8H)-yl]-1-(2,4,5-trifluorophenyl)butan-2-amine and its salts were analyzed for chiral purity by HPLC at λmax 268 nm using column Chiral-Cel OJ-H, 250 mm×4.6 mm×5μ or its equivalent on Shimadzu LCVP model under the following conditions, Detector: UV absorption photometer Wave length: 268 nm Column temp.: 35° C. Flow rate: 0.8 mL/min.
# [3] = Stability of the novel salts versus free base (statement, no method given); assay type: physicochemical; settings: compared with the free base; no conditions given
# [4] = After 3 Month storage at 25° C. ± 2° C./60% ± 5% RH
# [5] = After 3 Month storage at 25° C. ± 2° C./60% ± 5% RH, listed as besylate crystalline(II)
# [6] = Initial, listed as besylate crystalline(II)
# [7] = After 3 Month storage at 25° C. ± 2° C./60% ± 5% RH, listed as besylate amorphous
# [8] = Initial, listed as besylate amorphous
molecule,measurement,setting,value
"N[C@@H](CC(=O)N1CCn2c(nnc2C(F)(F)F)C1)Cc1cc(F)c(F)cc1F.O=S(=O)(O)c1ccccc1 [SBII, crystalline besylate salt(II) of (2R)-4-oxo-4-[3-(trifluoromethyl)-5,6-dihydro[1,2,4]triazolo[4,3-a]pyrazin-7(8H)-yl]-1-(2,4,5-trifluorophenyl)butan-2-amine]",efficacy compared with crystalline monohydrate phosphate salt (SP),[1],better than
same,% change in AUC glucose,[1]; 10 mg/kg,−45.7 ± 1.5%
same,Polymorphism XRD,[2]; [4],No Change
same,Description,[2]; [5],Off white colored
same,Purity (By HPLC),[2]; [5],99.97%
same,Water (by KFR),[2]; [5],2.90%
same,Description,[2]; Initial,white colored powder
same,Polymorphism XRD,[2]; [6],Crystalline pattern
same,Purity (By HPLC),[2]; [6],99.87%
same,Water (by KFR),[2]; [6],2.77%
"N[C@@H](CC(=O)N1CCn2c(nnc2C(F)(F)F)C1)Cc1cc(F)c(F)cc1F.O=S(=O)(O)c1ccccc1 [SBa, amorphous besylate salt of (2R)-4-oxo-4-[3-(trifluoromethyl)-5,6-dihydro[1,2,4]triazolo[4,3-a]pyrazin-7(8H)-yl]-1-(2,4,5-trifluorophenyl)butan-2-amine]",efficacy compared with crystalline monohydrate phosphate salt (SP),[1],better than
same,% change in AUC glucose,[1]; 10 mg/kg,−43.3 ± 1.6%
same,Polymorphism XRD,[2]; [4],No Change
same,Description,[2]; [7],white colored powder
same,Purity (By HPLC),[2]; [7],99.52%
same,Water (by KFR),[2]; [7],3.14%
same,Description,[2]; Initial,white colored powder
same,Polymorphism XRD,[2]; [8],amorphous pattern
same,Purity (By HPLC),[2]; [8],99.41%
same,Water (by KFR),[2]; [8],1.01%
"N[C@@H](CC(=O)N1CCn2c(nnc2C(F)(F)F)C1)Cc1cc(F)c(F)cc1F [SB, (2R)-4-oxo-4-[3-(trifluoromethyl)-5,6-dihydro[1,2,4]triazolo[4,3-a]pyrazin-7(8H)-yl]-1-(2,4,5-trifluorophenyl)butan-2-amine, reference compound]",% change in AUC glucose,[1],−36.5 ± 1.6%
"N[C@@H](CC(=O)N1CCn2c(nnc2C(F)(F)F)C1)Cc1cc(F)c(F)cc1F.O=P(O)(O)O [SP, (2R)-4-oxo-4-[3-(trifluoromethyl)-5,6-dihydro[1,2,4]triazolo[4,3-a]pyrazin-7(8H)-yl]-1-(2,4,5-trifluorophenyl)butan-2-amine phosphate salt, reference compound]",% change in AUC glucose,[1],−31.9 ± 1.8%
"Cl.N[C@@H](CC(=O)N1CCn2c(nnc2C(F)(F)F)C1)Cc1cc(F)c(F)cc1F [Hydrochloride crystalline, hydrochloride salt of (2R)-4-oxo-4-[3-(trifluoromethyl)-5,6-dihydro[1,2,4]triazolo[4,3-a]pyrazin-7(8H)-yl]-1-(2,4,5-trifluorophenyl)butan-2-amine]",Description,[2]; [4],white colored powder
same,Polymorphism XRD,[2]; [4],No Change
same,Purity (By HPLC),[2]; [4],99.91%
same,Water (by KFR),[2]; [4],4.01%
same,Description,[2]; Initial,white colored powder
same,Polymorphism XRD,[2]; Initial,Crystalline pattern
same,Purity (By HPLC),[2]; Initial,99.82%
same,Water (by KFR),[2]; Initial,3.54%
"N[C@@H](CC(=O)N1CCn2c(nnc2C(F)(F)F)C1)Cc1cc(F)c(F)cc1F.O=C(O)CCCCC(=O)O [adipate, adipic acid salt of (2R)-4-oxo-4-[3-(trifluoromethyl)-5,6-dihydro[1,2,4]triazolo[4,3-a]pyrazin-7(8H)-yl]-1-(2,4,5-trifluorophenyl)butan-2-amine]",stability of the salt,[3],very stable
"(2R)-4-oxo-4-[3-(trifluoromethyl)-5,6-dihydro[1,2,4]triazolo[4,3-a]pyrazin-7(8H)-yl]-1-(2,4,5-trifluorophenyl)butan-2-amine gentisate [SG]",efficacy compared with crystalline monohydrate phosphate salt (SP),[1],better than
same,% change in AUC glucose,[1],−39.4 ± 1.8%
same,stability of the salt,[3],very stable
"N[C@@H](CC(=O)N1CCn2c(nnc2C(F)(F)F)C1)Cc1cc(F)c(F)cc1F.O=C(O)C(F)(F)F [TFA salt, Trifluoroacetic acid salt of (2R)-4-oxo-4-[3-(trifluoromethyl)-5,6-dihydro[1,2,4]triazolo[4,3-a]pyrazin-7(8H)-yl]-1-(2,4,5-trifluorophenyl)butan-2-amine]",Description,[2]; [4],white colored powder
same,Polymorphism XRD,[2]; [4],No Change
same,Purity (By HPLC),[2]; [4],97.5%
same,Water (by KFR),[2]; [4],3.45%
same,Description,[2]; Initial,white colored powder
same,Polymorphism XRD,[2]; Initial,Crystalline pattern
same,Purity (By HPLC),[2]; Initial,97.89%
same,Water (by KFR),[2]; Initial,2.77%
